{
  "source": "patent US20230190657A1",
  "about": "“METHODS AND COMPOSITIONS FOR TREATING A FIBROTIC DISEASE” (TRUSTEES OF BOSTON UNIVERSITY, priority 2020, published 2023)",
  "key": {"human fibroblasts": {"test_system": "human fibroblasts", "conditions": "cited from earlier work"}, "[1]": {"test_system": "stiff shoulder (shoulder contracture), glenohumeral joint", "assay": "Range of motion in rat shoulder contracture model", "format": "in vivo, rats", "protocol": "The study was approved by the Institutional Animal Care and Use Committee, and 10 Sprague-Dawley rats (250-300 g, Charles River Laboratories, Wilmington, MA, USA) were used in the study. For each animal, torque was measured per degree, on the intact left shoulder as a function of rotation angle between 80° of internal rotation (negative values by convention) and 60° of external rotation (positive values by convention) prior to any surgical intervention (baseline). […] Therefore, torque values at 60° external rotation (rOUT) and 80° of internal rotation (τINT) were recorded for each animal.\nThe left forelimb of each animal was immobilized using extraarticular internal fixation. Under isoflurane anesthesia, a longitudinal skin incision was made perpendicular to the scapular spine. Two No. 2-0 braided polyester sutures (Ethibond Excel, Ethicon - San Lorenzo, PR, USA) were passed between the medial border of the scapula and the humeral shaft and tightened to immobilize the shoulder joint (FIG. 1, panel A). Muscular structures were not manipulated during surgery, and the animals were allowed normal activity in their cages immediately after the procedure.\nAfter 8 weeks of immobilization, the restraining sutures were removed, and the 10 animals were divided into two groups to evaluate changes in ROM (ROM group, n = 5) and joint stiffness (stiffness group, n = 5). In the ROM group, changes in kinematics were longitudinally quantified in the follow-up period by measuring the ROM achieved with the τOUT and τINT measured at baseline. This was conducted to evaluate whether immobilization mediated a significant reduction in ROM. In the stiffness group, joint kinetics were examined by measuring the differences in τOUT and τINT needed to achieve the original 80° of internal rotation and 60° of external rotation, respectively. […]\nTo reproducibly capture ROM and torque, passive limb rotation was performed by a stepper motor controlled with a microcontroller (UNO R3, Arduino - Torino, Italy). […] In the ROM group, pre-set programmable torque values, specific for each animal and measured at baseline (τOUT and τINT), were used as input variables in order to detect changes in rotation ROM with 0.2° resolution. […]\nThis study investigated the effects of recombinant human relaxin-2 on the kinetics and kinematics of the glenohumeral joint in an animal model of shoulder contracture, as described in Villa-Camacho et al., Journal of Shoulder and Elbow Surgery, 2015, 24(11): 1809-16. […] For each animal, torque was measured per degree, on the intact left shoulder as a function of rotation angle between […] and 60° of external rotation prior to any surgical intervention. […]"}, "[2]": {"test_system": "collagen build-up in the lung induced by bleomycin", "conditions": "cited from earlier work"}, "[3]": {"test_system": "shoulder joint (arthrofibrosis)", "assay": "Histological analysis of the shoulder joint in rat shoulder contracture model", "format": "in vivo", "conditions": "immobilized shoulders of rats; mIA of relaxin-2 or relaxin loaded microparticles"}, "[4]": {"assay": "Circular dichroism spectroscopy of relaxin-2 fold and stability", "format": "physicochemical", "protocol": "Relaxin-2 loaded PLGA microparticles (RMPs) were prepared based on the water/oil/water (w/o/w) method as described by Igartua, M., et. al., International Journal of Pharmaceutics, 1998, 169(1): 45-54 at 1.27 x 10-3 wt % loaded relaxin as determined by ELISA analysis. Significant optimization and tailoring of the method was required to obtain the particle. Amounts, time, temperature, mixing speed, polymer LA:GA content were all varied to identify a unique non-obvious set of conditions to prepare the polymer. […] Relaxin-2 in the relaxin-2 microparticles maintained its native secondary and tertiary structure through the w/o/w double-emulsion process. […] Additionally, relaxin-2 was stable at 37° C. over 2 months (FIG. 2, right). The relaxin-2 PLGA microparticles were prepared with batch-to-batch consistency and were resuspended in PEG-600 to reduce aggregation and flocculation, as well as to ease administration through a 23G needle.\nTwo amphiphilic hydrogels were synthesized for the physical entrapment of relaxin-2 in order to control its sustained release (FIG. 6). These amphiphilic molecules melted at 95 °C and congealed when slowly cooled back to room temperature strictly from non-covalent interactions. The alkyl chain of 1 and alkyl fluoride chain of 2 allow for hydrophobic interactions between each molecule, while the […] and thymidine moieties allow for pi-pi stacking. Lastly, the deoxyribose and glucose groups facilitate hydrogen bonding (Godeau, G., et al., Tetrahedron Letters 2010, 51: 1012-1015; Ramen, F.A. et al., Biomaterials. 2017, 145: 72-80). Together, these amphiphilic molecules create unique and stable supramolecular assemblies that are stable at 37 °C for at least two weeks. This stability feature is another novel finding and benefit to the use of the hydrogels. Three gels of each 1 and 2 were created with bovine serum albumin and relaxin-2 at different densities by dissolving each molecule in a solution of phosphate buffered saline with protein and heating to 95 °C for 30 minutes. […] After cooling down to room temperature, relaxin-2-loaded gels were fully congealed (FIG. 7, right)."}, "[5]": {"test_system": "cultured renal fibroblasts, epithelial cells and mesangial cells", "conditions": "cited from earlier work"}, "[6]": {"test_system": "scleroderma (systemic sclerosis)", "conditions": "cited from earlier work"}, "[7]": {"conditions": "in vivo; cited from earlier work"}, "heart failure": {"test_system": "heart failure", "conditions": "30 micrograms/kg/day for 2 days, intravenous infusion; cited from earlier work"}, "[8]": {"test_system": "collagen I expression in human fibroblast-like synoviocytes (HFLS)", "assay": "Collagen I expression in HFLS treated with relaxin-2 microparticles in transwells", "format": "cell-based", "from_the_text": "Human fibroblast-like synoviocytes (HFLS) treated with relaxin-2 microparticles in transwells allow for evaluation of the release and efficacy of released relaxin-2 at various time points. […] In the presence of relaxin-2, collagen I is expressed at 20 to 30 % of the basal level at weeks 1, 3, and 4."}},
  "note": "Entries after “also recorded” stand apart in the source; their conditions may differ.",
  "data": [
    {"substance": "Relaxin-2", "values": [
      {"measurement": "collagen and fibronectin levels", "setting": "human fibroblasts", "value": "reduction in levels of collagen types I and III and fibronectin"},
      {"measurement": "internal ROM", "setting": "[1]; intravenous injection at a much greater dose", "value": "similarly constricted internal ROM compared with the untreated control group"},
      {"measurement": "internal ROM", "setting": "[1]; relaxin-2 as mIA (5 intraarticular injections of 2 ug/kg every other day), RMP as single injection of approximately 10 ug/kg", "value": "significant increase back to healthy baseline by week 2"},
      {"measurement": "internal ROM", "setting": "[1]; relaxin-2 as mIA (5 intraarticular injections of 2 ug/kg every other day), RMP as single injection of approximately 10 ug/kg, listed as relaxin-2", "value": "restoration of internal ROM to baseline measurements"},
      {"measurement": "internal ROM", "setting": "[1]; singular articular injection", "value": "similarly constricted internal ROM compared with the untreated control group"},
      {"measurement": "lung collagen build-up", "setting": "[2]", "value": "decreased collagen build-up in the lung induced by bleomycin"},
      {"measurement": "histology: adhesions / hallmarks of arthrofibrosis", "setting": "[3]", "value": "lacked any apparent adhesions"},
      {"measurement": "time stable at 37° C. without loss of alpha helical structure", "setting": "[4]", "value": "up to 2 months"},
      {"measurement": "time stable at 37° C. without loss of alpha helical structure", "setting": "[4]; listed as relaxin-2", "value": 2, "unit": "months"},
      {"measurement": "conformation after incubation at 95° C.", "setting": "[4]; 95° C., at least one hour", "value": "maintains its folded 3D structure; also recorded: tolerant to incubation for at least one hour"},
      {"measurement": "secondary (alpha helical) structure after the double emulsion process", "setting": "[4]; w/o/w double emulsion of PLGA microparticle synthesis", "value": "no change; also recorded: unaffected by the double emulsion process"},
      {"measurement": "TGF-β-induced fibronectin levels", "setting": "[5]", "value": "decreased TGF-β-induced fibronectin levels"},
      {"measurement": "primary endpoint of effectiveness", "setting": "[6]; 25 micrograms/kg/day for 24 weeks, subcutaneous delivery", "value": "did not meet the trial’s primary endpoint of effectiveness"},
      {"measurement": "renal adverse events", "setting": "[6]; human, in vivo, sc", "value": "declines in creatine clearance and renal adverse events"},
      {"measurement": "pharmacokinetic profile", "setting": "[7]", "value": "rapid pharmacokinetic profile"},
      {"measurement": "primary endpoint of effectiveness", "setting": "heart failure", "value": "did not meet the trial’s primary endpoint of effectiveness"},
      {"measurement": "antifibrotic efficacy (downregulation of collagen I expression) of released relaxin-2", "setting": "[8]; HFLS / synoviocytes, over four weeks, versus untreated control", "value": "significant downregulation in collagen I expression"},
      {"measurement": "collagen I level by densitometry (reduced to)", "setting": "[8]; synoviocytes, legend of FIG. 4 breaks off", "value": "approximately 50%"}
    ]}
  ]
}
